Reference: ChEMBL document CHEMBL1201862, “PubChem BioAssay data set” (2004)
Active and inactive are the calls of the source.

Assays:
[1] = target: T1, Short transient receptor potential channel 4 (Mus musculus, UniProt Q9QUQ5); assay: calcium entry via TRPC4 opening agents – cell-based, HEK293 TRPC4/mu-opioid, Fluo-4 calcium, dose response (AID 434937); format: functional
T1 sequence (Q9QUQ5 whole entry): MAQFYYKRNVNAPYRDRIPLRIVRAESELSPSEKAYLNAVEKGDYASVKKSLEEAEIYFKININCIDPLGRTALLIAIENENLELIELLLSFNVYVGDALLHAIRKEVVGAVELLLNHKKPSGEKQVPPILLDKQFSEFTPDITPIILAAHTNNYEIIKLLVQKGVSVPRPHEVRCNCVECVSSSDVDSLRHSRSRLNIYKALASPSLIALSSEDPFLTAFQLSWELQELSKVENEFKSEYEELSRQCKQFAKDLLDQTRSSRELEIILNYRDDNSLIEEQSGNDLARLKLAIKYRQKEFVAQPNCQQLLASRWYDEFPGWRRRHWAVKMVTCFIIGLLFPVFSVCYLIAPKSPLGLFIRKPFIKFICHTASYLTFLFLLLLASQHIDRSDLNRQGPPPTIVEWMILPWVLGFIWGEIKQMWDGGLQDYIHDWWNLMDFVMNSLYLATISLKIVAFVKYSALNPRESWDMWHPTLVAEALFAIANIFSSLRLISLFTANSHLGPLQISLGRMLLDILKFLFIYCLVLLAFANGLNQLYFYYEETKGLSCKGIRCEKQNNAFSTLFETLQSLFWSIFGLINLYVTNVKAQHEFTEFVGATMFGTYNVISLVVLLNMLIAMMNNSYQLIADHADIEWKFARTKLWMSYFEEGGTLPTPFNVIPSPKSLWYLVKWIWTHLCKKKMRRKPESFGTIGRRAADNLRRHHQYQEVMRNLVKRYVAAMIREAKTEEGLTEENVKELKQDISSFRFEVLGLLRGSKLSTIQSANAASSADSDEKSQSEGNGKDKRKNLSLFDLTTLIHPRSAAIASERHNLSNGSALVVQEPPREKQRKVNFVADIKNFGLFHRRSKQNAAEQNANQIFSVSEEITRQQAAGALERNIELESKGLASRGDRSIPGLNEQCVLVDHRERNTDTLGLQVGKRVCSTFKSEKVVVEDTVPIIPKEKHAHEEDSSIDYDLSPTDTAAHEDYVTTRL

[2] = target: T2, Leucine aminopeptidase (Plasmodium falciparum 3D7, UniProt Q8IL11); assay: P. falciparum M17LAP inhibitors, primary screen, biochemical, fluorogenic H-Leu-NHMec substrate, 1536-well (AID 1619); format: functional
T2 sequence (Q8IL11 whole entry): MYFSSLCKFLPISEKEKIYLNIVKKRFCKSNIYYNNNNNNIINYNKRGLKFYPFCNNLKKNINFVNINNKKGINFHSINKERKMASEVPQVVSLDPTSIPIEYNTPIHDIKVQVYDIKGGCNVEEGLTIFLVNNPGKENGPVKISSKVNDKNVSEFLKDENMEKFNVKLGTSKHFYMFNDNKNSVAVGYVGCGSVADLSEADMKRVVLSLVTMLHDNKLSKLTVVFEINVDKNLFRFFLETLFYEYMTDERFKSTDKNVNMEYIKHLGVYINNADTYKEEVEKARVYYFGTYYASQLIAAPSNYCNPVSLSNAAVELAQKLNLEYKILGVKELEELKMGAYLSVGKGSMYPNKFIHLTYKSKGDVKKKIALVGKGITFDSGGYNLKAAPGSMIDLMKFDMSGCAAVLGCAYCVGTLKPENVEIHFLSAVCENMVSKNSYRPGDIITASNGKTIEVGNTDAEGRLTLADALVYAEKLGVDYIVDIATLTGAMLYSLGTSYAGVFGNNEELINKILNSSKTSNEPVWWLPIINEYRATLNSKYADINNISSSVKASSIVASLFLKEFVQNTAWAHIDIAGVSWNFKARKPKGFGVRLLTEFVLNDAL

[3] = target: Induced myeloid leukemia cell differentiation protein Mcl-1 (Homo sapiens, UniProt Q07820); format: functional
[4] = system: P388/ADR; assay: cells; format: functional; conditions: Mus musculus
[5] = system: SN12K1; assay: cells; format: functional; conditions: Homo sapiens
[6] = system: P388; assay: cells; format: functional; conditions: Mus musculus
[7] = reduction of Shn3 3'UTR-driven luciferase in osteoblasts – cell-based, Clone20 osteoblasts, firefly luciferase, cherry-picked, dose response (AID 624132); format: functional;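 also: firefly luciferase luminescence from reporter carrying the Shn3 3'UTR in osteoblasts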
[8] = loss of viability in HepG2 cells – cell-based, CellTiter-Glo, cherry-picked, cytotoxicity control for Shn3 inhibitor project, dose response (AID 624134); format: functional
[9] = non-specific 3'UTR reporter inhibition in Clone20-Shn3RL – cell-based, Renilla luciferase, cherry-picked, counter-screen for Shn3 inhibitor project, dose response (AID 624133); format: functional
[10] = target: T3, RNA-binding protein pos-1 (Caenorhabditis elegans, UniProt G5EF15); assay: disruptors of C. elegans POS-1 RNA interaction – biochemical, fluorescence polarization, dose response (AID 1964);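 also: purified POS-1 fused to maltose binding protein made in E. coli; potency of compounds blocking POS-1 binding to fluorescent RNA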
T3 sequence (G5EF15 whole entry): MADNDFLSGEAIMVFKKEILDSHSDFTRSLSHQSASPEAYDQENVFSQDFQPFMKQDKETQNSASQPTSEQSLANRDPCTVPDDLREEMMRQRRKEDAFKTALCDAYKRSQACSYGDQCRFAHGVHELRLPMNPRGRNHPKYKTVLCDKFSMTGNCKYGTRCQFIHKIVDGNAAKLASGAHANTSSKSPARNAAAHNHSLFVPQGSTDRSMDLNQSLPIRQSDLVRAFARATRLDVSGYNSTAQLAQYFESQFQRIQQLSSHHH

[11] = target: T4, Zinc finger protein mex-5 (Caenorhabditis elegans, UniProt Q9XUB2); assay: potency of MEX-5 RNA-binding blockers – biochemical, C. elegans, fluorescence polarization, dose response (AID 1960)
T4 sequence (Q9XUB2 whole entry): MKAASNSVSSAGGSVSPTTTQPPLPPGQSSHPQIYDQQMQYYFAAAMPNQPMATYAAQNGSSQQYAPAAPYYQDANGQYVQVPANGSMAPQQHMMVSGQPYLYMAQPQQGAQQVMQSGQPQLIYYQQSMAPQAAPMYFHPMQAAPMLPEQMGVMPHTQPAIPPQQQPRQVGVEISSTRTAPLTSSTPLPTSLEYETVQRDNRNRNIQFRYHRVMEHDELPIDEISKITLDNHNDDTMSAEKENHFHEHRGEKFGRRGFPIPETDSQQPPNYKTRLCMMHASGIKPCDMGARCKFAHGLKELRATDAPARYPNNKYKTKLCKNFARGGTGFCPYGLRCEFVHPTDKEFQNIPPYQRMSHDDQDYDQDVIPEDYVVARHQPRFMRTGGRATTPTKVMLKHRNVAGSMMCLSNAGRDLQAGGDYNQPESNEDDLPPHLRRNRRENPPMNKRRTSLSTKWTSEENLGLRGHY

[12] = system: HEK293; assay: EBV LMP1 TES2 canonical NF-kB signalling blockers – cell-based, HEK293, luciferase, cherry-pick, dose response (AID 588343); format: functional; conditions: Homo sapiens

Induced myeloid leukemia cell differentiation protein Mcl-1, sequence (Q07820 whole entry): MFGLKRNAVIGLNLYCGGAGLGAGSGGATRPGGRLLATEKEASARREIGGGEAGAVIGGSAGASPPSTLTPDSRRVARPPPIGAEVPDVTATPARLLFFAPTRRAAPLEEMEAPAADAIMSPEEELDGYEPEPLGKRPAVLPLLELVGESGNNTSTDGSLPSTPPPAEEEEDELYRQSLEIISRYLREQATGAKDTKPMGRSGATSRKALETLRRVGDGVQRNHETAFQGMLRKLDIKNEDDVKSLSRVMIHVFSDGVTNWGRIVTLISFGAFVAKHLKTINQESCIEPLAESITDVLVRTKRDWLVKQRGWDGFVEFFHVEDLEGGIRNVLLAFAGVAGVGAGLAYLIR

In the case of `CCOC(=O)[C@@H]1CCNC[C@@H]1c1ccccc1`, the EC50 [1] is reported as 3.35 µM (active).
In the case of `Nc1nc(SCc2nc(-c3ccccc3)no2)[nH]c(=O)c1-c1ccccc1`, the IC50 [2] is reported as 7.2 µM (active).
With `Cc1ccc(C(=O)Nc2ccc(Oc3ccc(C(=O)O)c(C(=O)O)c3)cc2)cc1C` the IC50 [2] was 13.2 µM (active).
In the case of `CCC(C)N1C(=O)/C(=C/c2ccc3c(c2)CCN3CCCCl)C(=O)NC1=S` (stereo not drawn), the IC50 [3] is reported as 5.31 µM (active).
For `CC1SC(C)C(=O)N(CC(=O)NCc2ccc(F)cc2)C1=O` (stereo not drawn), the IC50 [2] was 31.4 µM (active).
For `CC(=O)OC1C(O)C(C)OC(OC(=O)C2CCC3C(C2)OC2(CC(OC(=O)/C=C/c4ccccc4)C(C)CO2)C32CO2)C1OC1OC(C)C(O)C(O)C1O` (stereo not drawn), the GI50 [4] was 20.9 µM (inactive), the GI50 [5] was 0.0348 µM (active) and the GI50 [6] was 0.306 µM (active).
With `C=C1C(=O)OC2C=C(C)CC3C=C(CCC=C(C)CCC12)C(=O)O3` (stereo not drawn) the GI50 [4] was 22.1 µM (inactive), the GI50 [5] was 58.3 µM (inactive) and the GI50 [6] was 12.4 µM (inactive).
For `CN(Cc1nccn1C)C(=O)c1cc(COc2ccc3ncccc3c2)on1`, the AC50 [7] was 6.97 µM (active), the AC50 [8] was > 70 µM (inactive) and the AC50 [9] was 36.8 µM (active).
In the case of `CC1Sc2ccc(S(=O)(=O)N3CCC(C(=O)Nc4cccc(Cl)c4)CC3)cc2NC1=O` (stereo not drawn), the AC50 [7] is reported as 3.27 µM (active), the AC50 [8] is reported as 44.6 µM (active) and the AC50 [9] is reported as 8.77 µM (active).
In the case of `CCC/C=C/C=C/C(=O)OC1/C(=C/C(=O)OC)CC2CC(C(C)O)OC(=O)CC(O)CC3CC(OC(C)=O)C(C)(C)C(O)(CC4C/C(=C/C(=O)OC)CC(/C=C/C(C)(C)C1(O)O2)O4)O3` (stereo not drawn), the GI50 [6] is reported as 2.16 µM (inactive).
With `CC1=NN(C(N)=S)C(=O)C1N=Nc1cccc(C(=O)O)c1` (stereo not drawn) the EC50 [10] was 35.1 µM (active), the EC50 [11] was 22.7 µM (active) and the AC50 [12] was 33.1 µM (active).
In the case of `Cc1csc(SC(C)C(=O)Nc2ccc(Cl)cn2)n1` (stereo not drawn), the IC50 [2] is reported as 6.63 µM (active).
For `CC1Cc2ccccc2N1c1ncnc(N)c1[N+](=O)[O-]` (stereo not drawn), the AC50 [12] was 2.41 µM (active).
